The values below come from patent publication EP0200132A2, “(Aminoalkylthio)hydroxydibenzoxepins, a process for their preparation and their use as medicaments” (HOECHST-ROUSSEL PHARMACEUTICALS INCORPORATED, priority 1985, dated 1986).

The test system of test [1] is tetrabenazine-induced ptosis. In words: inhibition of tetrabenazine-induced depression (ptosis) in mice. The test is classed as in vivo.
Test [2] has as its system phenyl-p-quinone writhing. In words: phenyl-p-quinone writhing assay in mice. The settings on record: Mus musculus, sc. The test is classed as in vivo. From the text: The (aminoalkylthio)hydroxydibenzoxepins of the present invention are also useful as analgetic agents due to their ability to alleviate pain in mammals. […] Exptl.
In general terms: In writhing tests, fewer writhes than in controls are read as antinociception.

For the compound `CN(C)CCC=C1c2ccccc2CCc2ccccc21` [Amitriptyline, reference compound], in test [1] (intraperitoneally, standard antidepressant, unit not given), the “EDso (tetrabenazine-induced ptosis)” value worked out at 1.5.
By inhibition is commonly meant how much of the control response was suppressed. A high value points to a response far below the control. Take `CNCCSC1=Cc2cc(O)ccc2Oc2ccc(F)cc21` [Example 2, 2-Fluoro-8-hydroxy-11-[β-(methylamino)ethylthio)-dibenz-[b,f]oxepin]: the inhibition at 20 mg/kg in test [2] (mice, subcutaneous dose 20 mg/kg of body weight) is 69%. Also, the ED50 in test [1] (Mus musculus, ip, intraperitoneal, read-out: intraperitoneal dose effecting a 50% inhibition of tetrabenazine-induced ptosis (ED50)) is 3.3 mg/kg.
`CNCCSC1=Cc2ccc(O)cc2Oc2ccc(F)cc21` [Example 3, 2-Fluoro-7-hydroxy-11-[β-(methylamino)ethylthio]-dibenz-[b,f]oxepin] registered an inhibition at 10 mg/kg in test [2] (mice, subcutaneous dose 10 mg/kg of body weight) of 42%. In addition, at 20 mg/kg the inhibition in test [1] (Mus musculus, ip, intraperitoneal dose 20 mg/kg of body weight) was 89%.
As to `CCC(=O)O[C@](Cc1ccccc1)(c1ccccc1)[C@H](C)CN(C)C` [Propoxyphene, reference compound], the ED50 in test [2] (read-out: dose giving calculated 50% inhibition of writhing) is 3.9 mg/kg.
